Laboratory results as given in publication PMC12716025, “Plectranthus‐derived Abietanes as Protein Kinase C‐δ Activators: In Silico Design, Human Serum Albumin Interaction, and Stability Evaluation” (Chemistry & Biodiversity, 2025).

Target: T1, Human serum albumin (HSA) (Homo sapiens, UniProt P02768)
T1 construct: gene ALB; Essentially fatty acid-free HSA, type A1887 (Sigma-Aldrich)
Test: intrinsic tryptophan fluorescence quenching (binding constant Ka, […]°C), synchronous fluorescence, thermal shift (Tm +[…]°C)

T1 sequence (P02768 25-609): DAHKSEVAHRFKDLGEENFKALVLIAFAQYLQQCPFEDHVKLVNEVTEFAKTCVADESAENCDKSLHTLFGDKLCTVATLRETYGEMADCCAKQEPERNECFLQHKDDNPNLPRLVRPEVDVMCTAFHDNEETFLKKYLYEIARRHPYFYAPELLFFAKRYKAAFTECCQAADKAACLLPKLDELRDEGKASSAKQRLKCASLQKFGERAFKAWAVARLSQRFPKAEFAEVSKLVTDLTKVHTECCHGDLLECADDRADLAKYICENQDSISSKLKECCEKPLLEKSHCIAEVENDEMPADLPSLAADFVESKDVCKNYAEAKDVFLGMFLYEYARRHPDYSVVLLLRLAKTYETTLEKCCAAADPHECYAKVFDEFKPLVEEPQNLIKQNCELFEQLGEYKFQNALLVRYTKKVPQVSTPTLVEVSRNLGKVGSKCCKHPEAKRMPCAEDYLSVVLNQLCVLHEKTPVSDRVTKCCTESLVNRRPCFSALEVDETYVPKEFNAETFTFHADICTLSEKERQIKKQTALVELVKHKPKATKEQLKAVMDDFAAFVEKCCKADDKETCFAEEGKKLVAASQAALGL

Work on CC(=O)O[C@H]1C2=C(C(=O)C(O)=C(C(C)C)C2=O)[C@@]2(C)CCCC(C)(C)[C@@H]2[C@@H]1O [compound 1, 7α-acetoxy-6β-hydroxyroyleanone] yielded a Kd of 15.4 µM.
